Experimental data reported in US20250296929A1, “NOVEL HEPATOSELECTIVE POLYADENYLATING POLYMERASES INHIBITORS AND THEIR METHOD OF USE” (BARUCH S. BLUMBERG INSTITUTE, priority 2021, published 2025).
Several values for one entry are separate records, joined by “and”; a condition that tells them apart may be missing. Equal entries are not always repeated. Where two headings read alike, the source gives them in different places.

Legend:
[1] = Pharmacokinetics after 3 mg/kg IV administration, plasma; assay type: in vivo, CD1 mice
Method: (§1) Protocol for pharmacokinetic and tissue distribution studies. The pharmacokinetics of the compounds was studied in CD1 mice after intravenous (IV) and oral gavage (PO) administration. Mouse PK studies was conducted at 3 mg/kg (IV) and 8 mg/kg (PO). Plasma samples obtained from dosed animals, at ten time points, including 5, 15 and 30 minutes and 1, 1.5, 2, 4, 6, 8 and 24 hr post-dose for processing to plasma, were prepared for analysis by means of a single step protein precipitation technique, by adding 200 μL of acetonitrile containing an IS mixture (labetalol, imipramine and diclofenac) to 50 μL aliquots of individual subject samples. Samples were mixed by vortex for homogeneity and then subjected to centrifugation at 4000 rpm for 10 min. The supernatant (200 μL) was collected and injected into the LC-MS/MS for analysis. Pharmacokinetic parameters will be calculated using established non-compartmental methods. The liver distribution of the compounds was studied in the PO group and liver tissues were collected at each time point after PO administration. Accurately weighed whole liver tissues were collected in a 50 mL tube, and 3 volumes per weight of water will be added. Tissue samples were homogenized and 50 μL of the homogenates will be processed along with plasma samples as described above.

[2] = Pharmacokinetics after 8 mg/kg oral (PO) administration, plasma; assay type: in vivo, CD1 mice; design: AUClast/D: unit not given here
Method: as §1

[3] = molecular target: T1, OATP1B1 (Homo sapiens, UniProt Q9Y6L6); experiment: OATP1B1 transporter substrate uptake in OATP1B1-HEK293 cells; assay type: in vitro ADME; settings: test concentration 1 μM
T1 construct: expressed in transfected cells; host or cells: HEK293
T1 sequence (Q9Y6L6 1-691): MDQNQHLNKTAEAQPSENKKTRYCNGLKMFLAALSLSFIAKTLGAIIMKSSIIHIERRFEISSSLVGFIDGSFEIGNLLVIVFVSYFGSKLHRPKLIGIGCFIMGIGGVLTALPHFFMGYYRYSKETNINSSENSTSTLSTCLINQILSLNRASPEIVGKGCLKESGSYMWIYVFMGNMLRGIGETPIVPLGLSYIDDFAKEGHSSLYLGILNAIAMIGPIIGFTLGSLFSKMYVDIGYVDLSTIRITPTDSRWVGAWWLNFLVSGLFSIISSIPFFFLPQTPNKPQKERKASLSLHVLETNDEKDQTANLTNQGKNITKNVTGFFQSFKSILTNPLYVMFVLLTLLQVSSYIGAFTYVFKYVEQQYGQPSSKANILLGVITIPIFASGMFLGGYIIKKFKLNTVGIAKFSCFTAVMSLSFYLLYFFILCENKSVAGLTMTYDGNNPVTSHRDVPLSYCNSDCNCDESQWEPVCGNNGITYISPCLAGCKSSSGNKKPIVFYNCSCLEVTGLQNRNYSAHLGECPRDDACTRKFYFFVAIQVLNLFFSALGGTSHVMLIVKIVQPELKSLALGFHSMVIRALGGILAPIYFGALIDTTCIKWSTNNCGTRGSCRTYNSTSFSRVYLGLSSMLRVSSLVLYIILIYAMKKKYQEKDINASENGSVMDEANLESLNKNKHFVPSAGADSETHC

[4] = CD1, mouse, plasma, iv, 3 mg/kg, individual mice
[5] = CD1, mouse, plasma, iv, 3 mg/kg, mean
[6] = CD1, mouse, plasma, 8 mg/kg oral, mean

With `COc1cc2c(cc1OCCCCCCC(=O)O)C[C@@H](C(C)C)n1cc(C(=O)O)c(=O)cc1-2` [Example 6, (S)-9-((6-carboxyhexyl)oxy)-6-isopropyl-10-methoxy-2-oxo-6,7-dihydro-2H-pyrido[2,1-a]isoquinoline-3-carboxylic acid] the Plasma concentration ([1]; 5 min, individual mice) was 979 ng/mL and 689 ng/mL, the Plasma concentration ([1]; 0.25 h, individual mice) was 103 ng/mL and 73.0 ng/mL and the Plasma concentration ([1]; 0.5 h, individual mice) was 31.7 ng/mL and 24.9 ng/mL. For the same compound, the Plasma concentration ([1]; 1 h, individual mice) was 8.52 ng/mL and 6.79 ng/mL, the Plasma concentration ([1]; 2 h, individual mice) was 5.61 ng/mL and 5.51 ng/mL and 2.14 ng/mL and the Plasma concentration ([1]; 4 h, individual mice) was 1.69 ng/mL and BLOQ. The Plasma concentration ([1]; 8 h, individual mice) was “BLOQ”, the Plasma concentration ([1]; 24 h, individual mice) was “BLOQ” and the concentration at 5 min ([1]; CD1, mouse, plasma, intravenous, 3 mg/kg, 5 min, individual mice, read-out: Plasma concentration) was 817 ng/mL. For the same compound, the concentration at 5 min ([1]; CD1, mouse, plasma, intravenous, 3 mg/kg, 5 min, mean, read-out: Mean plasma concentration) was 828 ng/mL, the concentration at 0.25 h ([1]; CD1, mouse, plasma, intravenous, 3 mg/kg, 0.25 h, individual mice, read-out: Plasma concentration) was 82.3 ng/mL and the concentration at 0.25 h ([1]; CD1, mouse, plasma, intravenous, 3 mg/kg, 0.25 h, mean, read-out: Mean plasma concentration) was 86 ng/mL. It also gave a concentration at 0.5 h ([1]; CD1, mouse, plasma, intravenous, 3 mg/kg, 0.5 h, individual mice, read-out: Plasma concentration) of 32.8 ng/mL, a concentration at 0.5 h ([1]; CD1, mouse, plasma, intravenous, 3 mg/kg, 0.5 h, mean, read-out: Mean plasma concentration) of 29.8 ng/mL and a concentration at 1 h ([1]; CD1, mouse, plasma, intravenous, 3 mg/kg, 1 h, individual mice, read-out: Plasma concentration) of 11.4 ng/mL. It also gave a concentration at 1 h ([1]; CD1, mouse, plasma, intravenous, 3 mg/kg, 1 h, mean, read-out: Mean plasma concentration) of 8.9 ng/mL, a concentration at 2 h ([1]; CD1, mouse, plasma, intravenous, 3 mg/kg, 2 h, mean) of 4.42 ng/mL and a concentration at 4 h ([1]; CD1, mouse, plasma, intravenous, 3 mg/kg, 4 h, individual mice, read-out: Plasma concentration) of 1.85 ng/mL. The concentration at 4 h ([1]; CD1, mouse, plasma, intravenous, 3 mg/kg, 4 h, mean, read-out: Mean plasma concentration) was 1.77 ng/mL, the concentration at 8 h ([1]; CD1, mouse, plasma, intravenous, 3 mg/kg, 8 h, individual mice) was 1.08 ng/mL and the AUC(0-inf) [1, 4] was 0.268 µg·h/mL. The AUC(0-t) [1, 4] was 0.263 µg·h/mL, the C0 ([1]; CD1, mouse, plasma, iv, 3 mg/kg, individual mice, read-out: C0) was 2570 ng/mL and the AUC(0-inf) [1, 5] was 0.258 µg·h/mL. For the same compound, the AUC(0-t) [1, 5] was 0.255 µg·h/mL, the half-life [1, 5] was 88.8 min and the C0 ([1]; CD1, mouse, plasma, iv, 3 mg/kg, mean, read-out: C0) was 2570 ng/mL. The MRT inf ([1]; CD1, mouse, plasma, iv, 3 mg/kg, mean, read-out: MRTInf —obs) was 17.2 min, the Vd ([1]; CD1, mouse, plasma, iv, 3 mg/kg, mean, read-out: Vss —obs) was 3.26 L/kg and the AUCInf ([1]; individual mice) was 0.301 µg·h/mL and 0.206 µg·h/mL. For the same compound, the AUClast ([1]; individual mice) was 0.298 µg·h/mL and 0.205 µg·h/mL, the “AUC—% Extrap_obs” value ([1]; individual mice) was 1.59% and 1.03% and 0.662% and the C0 ([1]; individual mice) was 3016 ng/mL and 2115 ng/mL. The Cl_obs ([1]; individual mice) was 11.2 L/h/kg and 9.96 L/h/kg and 14.5 L/h/kg, the “MRTInf —obs” value ([1]; individual mice) was 30.1 min and 13.8 min and 7.68 min and the T1/2 ([1]; individual mice) was 163 min and 76.2 min and 26.5 min. For the same compound, the “Vss —obs” value ([1]; individual mice) was 5.63 L/kg and 2.29 L/kg and 1.87 L/kg, the AUClast/D ([1]; mean) was 85.1 kg·ng·h/mL/mg and the “AUC—% Extrap_obs” value ([1]; mean) was 1.09%. The Cl_obs ([1]; mean) was 11.9 L/h/kg, the F ([2]; 8 mg/kg oral vs 3 mg/kg IV, mean) was 5.09% and the Plasma concentration ([2]; 8 mg/kg oral, 0.25 h, individual animals) was 10.3 ng/mL and 19.5 ng/mL and 18.4 ng/mL. The Plasma concentration ([2]; 8 mg/kg oral, 0.5 h, individual animals) was 9.93 ng/mL and 9.00 ng/mL and 9.40 ng/mL, the Plasma concentration ([2]; 8 mg/kg oral, 1 h, individual animals) was 4.10 ng/mL and 5.94 ng/mL and 9.27 ng/mL and the Plasma concentration ([2]; 8 mg/kg oral, 2 h, individual animals) was 5.41 ng/mL and 4.55 ng/mL and 2.29 ng/mL. For the same compound, the Plasma concentration ([2]; 8 mg/kg oral, 4 h, individual animals) was 3.03 ng/mL and 4.12 ng/mL and 3.68 ng/mL, the Plasma concentration ([2]; 8 mg/kg oral, 6 h, individual animals) was 1.53 ng/mL and 2.42 ng/mL and 2.85 ng/mL and the Plasma concentration ([2]; 8 mg/kg oral, 8 h, individual animals) was 6.65 ng/mL and 2.11 ng/mL and BLOQ. For the same compound, the Plasma concentration ([2]; 8 mg/kg oral, 24 h, individual animals) was “BLOQ”, the AUClast/D ([2]; 8 mg/kg oral, mean) was 4.33 and the concentration at 0.25 h ([2]; CD1, mouse, plasma, oral, 8 mg/kg, 8 mg/kg oral, 0.25 h, individual animals, read-out: Plasma concentration) was 18.4 ng/mL. The concentration at 0.25 h ([2]; CD1, mouse, plasma, oral, 8 mg/kg, 8 mg/kg oral, 0.25 h, mean, read-out: Mean plasma concentration) was 16.1 ng/mL, the concentration at 0.5 h ([2]; CD1, mouse, plasma, oral, 8 mg/kg, 8 mg/kg oral, 0.5 h, individual animals, read-out: Plasma concentration) was 9.4 ng/mL and the concentration at 0.5 h ([2]; CD1, mouse, plasma, oral, 8 mg/kg, 8 mg/kg oral, 0.5 h, mean, read-out: Mean plasma concentration) was 9.44 ng/mL. For the same compound, the concentration at 1 h ([2]; CD1, mouse, plasma, oral, 8 mg/kg, 8 mg/kg oral, 1 h, mean) was 6.44 ng/mL, the concentration at 2 h ([2]; CD1, mouse, plasma, oral, 8 mg/kg, 8 mg/kg oral, 2 h, mean) was 4.08 ng/mL and the concentration at 4 h ([2]; CD1, mouse, plasma, oral, 8 mg/kg, 8 mg/kg oral, 4 h, individual animals, read-out: Plasma concentration) was 3.68 ng/mL. For the same compound, the concentration at 4 h ([2]; CD1, mouse, plasma, oral, 8 mg/kg, 8 mg/kg oral, 4 h, mean, read-out: Mean plasma concentration) was 3.61 ng/mL, the concentration at 6 h ([2]; CD1, mouse, plasma, oral, 8 mg/kg, 8 mg/kg oral, 6 h, individual animals, read-out: Plasma concentration) was 2.85 ng/mL and the concentration at 6 h ([2]; CD1, mouse, plasma, oral, 8 mg/kg, 8 mg/kg oral, 6 h, mean, read-out: Mean plasma concentration) was 2.27 ng/mL. For the same compound, the concentration at 8 h ([2]; CD1, mouse, plasma, oral, 8 mg/kg, 8 mg/kg oral, 8 h, mean) was 4.38 ng/mL, the AUC(0-t) [2, 6] was 0.0347 µg·h/mL and the Cmax [2, 6] was 16.1 ng/mL. For the same compound, the Tmax [2, 6] was 15 min, the “Uptake Ratio (−/+Inhibitor)” value ([3]; OATP1B1-HEK293 cells, inhibitor Rifamycin SV) was 11.17 and the “Uptake Ratio (Transporter(−Inhibitor)/Mock(−Inhibitor))” value ([3]; OATP1B1-HEK293 vs Mock (normal HEK293)) was 18.99.
